Source: ChEMBL document CHEMBL3991601, “The target landscape of clinical kinase drugs” (Science, 2017)
The source made the active and inactive calls.

Columns and labels:
[1] = target: Serine/threonine-protein kinase MRCK alpha (Homo sapiens, UniProt Q5VT25)
[2] = target: T1, Acyl-CoA dehydrogenase family member 10 (Homo sapiens, UniProt Q6JQN1)
T1 sequence (Q6JQN1 whole entry): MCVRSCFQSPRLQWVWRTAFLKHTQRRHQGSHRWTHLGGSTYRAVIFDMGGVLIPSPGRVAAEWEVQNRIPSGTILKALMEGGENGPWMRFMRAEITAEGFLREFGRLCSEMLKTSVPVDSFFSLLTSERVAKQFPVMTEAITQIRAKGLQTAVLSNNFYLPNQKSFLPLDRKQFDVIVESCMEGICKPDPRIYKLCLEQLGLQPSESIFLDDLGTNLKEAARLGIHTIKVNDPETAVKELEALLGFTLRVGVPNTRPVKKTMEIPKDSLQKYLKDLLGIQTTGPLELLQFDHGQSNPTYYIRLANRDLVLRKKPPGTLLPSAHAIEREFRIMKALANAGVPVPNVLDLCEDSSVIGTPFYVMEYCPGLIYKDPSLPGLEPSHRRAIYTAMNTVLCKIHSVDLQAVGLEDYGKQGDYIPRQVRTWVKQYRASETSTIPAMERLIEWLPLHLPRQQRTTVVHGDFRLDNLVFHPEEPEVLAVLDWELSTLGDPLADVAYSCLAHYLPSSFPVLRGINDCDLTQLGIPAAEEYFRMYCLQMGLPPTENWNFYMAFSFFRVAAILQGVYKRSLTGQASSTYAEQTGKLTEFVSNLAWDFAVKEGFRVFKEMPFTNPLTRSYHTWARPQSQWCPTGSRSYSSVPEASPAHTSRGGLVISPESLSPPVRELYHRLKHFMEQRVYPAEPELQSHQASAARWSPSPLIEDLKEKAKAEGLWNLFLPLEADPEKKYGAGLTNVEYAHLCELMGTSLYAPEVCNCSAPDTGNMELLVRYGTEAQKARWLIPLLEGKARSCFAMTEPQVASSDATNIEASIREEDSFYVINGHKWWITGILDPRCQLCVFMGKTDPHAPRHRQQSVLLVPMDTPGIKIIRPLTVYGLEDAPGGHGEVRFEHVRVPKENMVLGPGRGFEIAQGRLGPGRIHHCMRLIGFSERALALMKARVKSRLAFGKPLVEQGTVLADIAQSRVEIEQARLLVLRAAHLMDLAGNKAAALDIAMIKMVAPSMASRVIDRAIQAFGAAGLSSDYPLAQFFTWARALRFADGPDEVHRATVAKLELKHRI

[3] = target: T2, Serine/threonine-protein kinase TBK1 (Homo sapiens, UniProt Q9UHD2)
T2 sequence (Q9UHD2 whole entry): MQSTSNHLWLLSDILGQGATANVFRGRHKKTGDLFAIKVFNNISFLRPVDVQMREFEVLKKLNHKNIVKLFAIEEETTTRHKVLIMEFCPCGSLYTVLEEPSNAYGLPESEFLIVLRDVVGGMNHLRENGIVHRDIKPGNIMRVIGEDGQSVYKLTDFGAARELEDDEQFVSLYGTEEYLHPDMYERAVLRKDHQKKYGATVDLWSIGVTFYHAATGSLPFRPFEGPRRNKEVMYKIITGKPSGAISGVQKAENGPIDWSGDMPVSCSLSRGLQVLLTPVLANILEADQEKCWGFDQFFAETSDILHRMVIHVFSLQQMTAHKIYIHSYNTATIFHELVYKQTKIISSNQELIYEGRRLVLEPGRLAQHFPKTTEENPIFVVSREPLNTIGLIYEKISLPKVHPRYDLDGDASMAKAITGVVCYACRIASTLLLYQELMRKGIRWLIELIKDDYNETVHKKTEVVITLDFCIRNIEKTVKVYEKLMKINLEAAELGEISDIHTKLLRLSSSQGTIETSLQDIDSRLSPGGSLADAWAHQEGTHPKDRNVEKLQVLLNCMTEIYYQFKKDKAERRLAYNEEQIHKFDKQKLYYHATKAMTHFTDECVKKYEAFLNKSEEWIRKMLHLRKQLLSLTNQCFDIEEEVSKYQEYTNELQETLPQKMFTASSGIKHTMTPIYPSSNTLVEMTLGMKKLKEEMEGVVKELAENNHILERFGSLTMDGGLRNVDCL

[4] = target: T3, Structural maintenance of chromosomes protein 1A (Homo sapiens, UniProt Q14683)
T3 sequence (Q14683 whole entry): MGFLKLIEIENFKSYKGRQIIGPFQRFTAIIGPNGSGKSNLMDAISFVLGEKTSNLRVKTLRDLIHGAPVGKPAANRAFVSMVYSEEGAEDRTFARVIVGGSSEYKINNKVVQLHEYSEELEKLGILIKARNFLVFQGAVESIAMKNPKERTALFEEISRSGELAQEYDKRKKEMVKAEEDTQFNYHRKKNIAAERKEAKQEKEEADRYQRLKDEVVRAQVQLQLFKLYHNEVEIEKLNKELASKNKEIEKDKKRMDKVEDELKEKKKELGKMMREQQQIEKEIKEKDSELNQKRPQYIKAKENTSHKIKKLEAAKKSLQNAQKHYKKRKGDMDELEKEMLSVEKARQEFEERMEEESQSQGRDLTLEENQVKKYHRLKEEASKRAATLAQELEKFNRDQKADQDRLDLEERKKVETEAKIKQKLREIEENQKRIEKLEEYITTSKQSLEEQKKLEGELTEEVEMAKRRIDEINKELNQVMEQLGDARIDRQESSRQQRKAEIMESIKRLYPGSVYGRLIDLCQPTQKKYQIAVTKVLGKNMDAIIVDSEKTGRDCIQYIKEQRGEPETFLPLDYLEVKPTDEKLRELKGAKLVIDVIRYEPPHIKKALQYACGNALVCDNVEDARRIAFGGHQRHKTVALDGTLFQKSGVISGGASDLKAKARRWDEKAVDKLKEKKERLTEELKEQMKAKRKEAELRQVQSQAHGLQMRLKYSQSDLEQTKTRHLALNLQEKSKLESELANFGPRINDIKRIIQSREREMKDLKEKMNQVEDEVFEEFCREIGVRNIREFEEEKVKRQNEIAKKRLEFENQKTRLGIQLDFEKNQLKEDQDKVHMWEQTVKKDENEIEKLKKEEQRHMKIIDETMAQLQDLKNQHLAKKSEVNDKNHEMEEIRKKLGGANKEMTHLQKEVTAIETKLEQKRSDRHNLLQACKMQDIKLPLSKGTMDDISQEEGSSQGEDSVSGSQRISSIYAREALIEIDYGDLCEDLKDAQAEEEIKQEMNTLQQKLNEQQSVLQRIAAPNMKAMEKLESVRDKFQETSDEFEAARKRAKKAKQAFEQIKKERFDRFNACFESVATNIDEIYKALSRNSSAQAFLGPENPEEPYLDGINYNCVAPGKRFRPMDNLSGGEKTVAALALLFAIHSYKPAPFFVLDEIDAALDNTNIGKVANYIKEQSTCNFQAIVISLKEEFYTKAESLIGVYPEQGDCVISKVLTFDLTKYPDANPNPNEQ

[5] = target: Insulin-like growth factor 1 receptor (Homo sapiens, UniProt P08069)
Chain of Insulin-like growth factor 1 receptor (P08069 31-736 limits assumed): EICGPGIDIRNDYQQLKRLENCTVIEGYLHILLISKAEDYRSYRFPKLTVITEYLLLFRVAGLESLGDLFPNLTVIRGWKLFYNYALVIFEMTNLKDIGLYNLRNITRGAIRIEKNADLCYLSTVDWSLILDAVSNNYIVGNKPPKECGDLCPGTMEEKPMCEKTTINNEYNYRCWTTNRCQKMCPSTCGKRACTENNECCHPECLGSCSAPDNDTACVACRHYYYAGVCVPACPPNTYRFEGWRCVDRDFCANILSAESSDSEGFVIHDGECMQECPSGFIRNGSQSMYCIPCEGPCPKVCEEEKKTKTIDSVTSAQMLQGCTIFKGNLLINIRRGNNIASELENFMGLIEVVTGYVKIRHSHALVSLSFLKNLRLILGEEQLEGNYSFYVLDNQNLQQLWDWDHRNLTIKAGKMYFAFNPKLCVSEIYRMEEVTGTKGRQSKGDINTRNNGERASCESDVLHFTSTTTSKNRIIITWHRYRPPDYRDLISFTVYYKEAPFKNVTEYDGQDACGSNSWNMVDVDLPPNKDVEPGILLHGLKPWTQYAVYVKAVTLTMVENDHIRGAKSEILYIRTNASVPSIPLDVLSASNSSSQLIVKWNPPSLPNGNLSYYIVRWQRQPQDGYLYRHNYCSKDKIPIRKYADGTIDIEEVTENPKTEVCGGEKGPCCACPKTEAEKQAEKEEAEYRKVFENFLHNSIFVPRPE
Chain of Insulin-like growth factor 1 receptor (P08069 741-1367 limits assumed): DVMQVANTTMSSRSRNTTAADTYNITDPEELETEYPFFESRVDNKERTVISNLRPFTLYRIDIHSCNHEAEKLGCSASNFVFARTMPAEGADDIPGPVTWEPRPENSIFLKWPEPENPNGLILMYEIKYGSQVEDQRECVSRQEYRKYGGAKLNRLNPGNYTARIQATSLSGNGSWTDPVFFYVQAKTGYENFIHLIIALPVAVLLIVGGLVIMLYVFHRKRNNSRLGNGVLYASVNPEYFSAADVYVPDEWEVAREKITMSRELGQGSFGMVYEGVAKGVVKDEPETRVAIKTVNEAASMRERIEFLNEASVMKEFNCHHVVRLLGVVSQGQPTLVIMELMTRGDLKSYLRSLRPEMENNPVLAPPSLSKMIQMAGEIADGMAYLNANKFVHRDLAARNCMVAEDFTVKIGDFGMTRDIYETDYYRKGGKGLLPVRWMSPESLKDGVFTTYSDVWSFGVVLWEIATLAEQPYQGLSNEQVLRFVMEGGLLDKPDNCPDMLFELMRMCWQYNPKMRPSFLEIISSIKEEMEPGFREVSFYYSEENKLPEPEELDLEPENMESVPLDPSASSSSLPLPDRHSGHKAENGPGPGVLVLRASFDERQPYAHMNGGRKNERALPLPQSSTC

Measured: Kd
Further: in the data inactive means no Kd found up to 30 µM.

Chain of Serine/threonine-protein kinase MRCK alpha (Q5VT25 whole entry): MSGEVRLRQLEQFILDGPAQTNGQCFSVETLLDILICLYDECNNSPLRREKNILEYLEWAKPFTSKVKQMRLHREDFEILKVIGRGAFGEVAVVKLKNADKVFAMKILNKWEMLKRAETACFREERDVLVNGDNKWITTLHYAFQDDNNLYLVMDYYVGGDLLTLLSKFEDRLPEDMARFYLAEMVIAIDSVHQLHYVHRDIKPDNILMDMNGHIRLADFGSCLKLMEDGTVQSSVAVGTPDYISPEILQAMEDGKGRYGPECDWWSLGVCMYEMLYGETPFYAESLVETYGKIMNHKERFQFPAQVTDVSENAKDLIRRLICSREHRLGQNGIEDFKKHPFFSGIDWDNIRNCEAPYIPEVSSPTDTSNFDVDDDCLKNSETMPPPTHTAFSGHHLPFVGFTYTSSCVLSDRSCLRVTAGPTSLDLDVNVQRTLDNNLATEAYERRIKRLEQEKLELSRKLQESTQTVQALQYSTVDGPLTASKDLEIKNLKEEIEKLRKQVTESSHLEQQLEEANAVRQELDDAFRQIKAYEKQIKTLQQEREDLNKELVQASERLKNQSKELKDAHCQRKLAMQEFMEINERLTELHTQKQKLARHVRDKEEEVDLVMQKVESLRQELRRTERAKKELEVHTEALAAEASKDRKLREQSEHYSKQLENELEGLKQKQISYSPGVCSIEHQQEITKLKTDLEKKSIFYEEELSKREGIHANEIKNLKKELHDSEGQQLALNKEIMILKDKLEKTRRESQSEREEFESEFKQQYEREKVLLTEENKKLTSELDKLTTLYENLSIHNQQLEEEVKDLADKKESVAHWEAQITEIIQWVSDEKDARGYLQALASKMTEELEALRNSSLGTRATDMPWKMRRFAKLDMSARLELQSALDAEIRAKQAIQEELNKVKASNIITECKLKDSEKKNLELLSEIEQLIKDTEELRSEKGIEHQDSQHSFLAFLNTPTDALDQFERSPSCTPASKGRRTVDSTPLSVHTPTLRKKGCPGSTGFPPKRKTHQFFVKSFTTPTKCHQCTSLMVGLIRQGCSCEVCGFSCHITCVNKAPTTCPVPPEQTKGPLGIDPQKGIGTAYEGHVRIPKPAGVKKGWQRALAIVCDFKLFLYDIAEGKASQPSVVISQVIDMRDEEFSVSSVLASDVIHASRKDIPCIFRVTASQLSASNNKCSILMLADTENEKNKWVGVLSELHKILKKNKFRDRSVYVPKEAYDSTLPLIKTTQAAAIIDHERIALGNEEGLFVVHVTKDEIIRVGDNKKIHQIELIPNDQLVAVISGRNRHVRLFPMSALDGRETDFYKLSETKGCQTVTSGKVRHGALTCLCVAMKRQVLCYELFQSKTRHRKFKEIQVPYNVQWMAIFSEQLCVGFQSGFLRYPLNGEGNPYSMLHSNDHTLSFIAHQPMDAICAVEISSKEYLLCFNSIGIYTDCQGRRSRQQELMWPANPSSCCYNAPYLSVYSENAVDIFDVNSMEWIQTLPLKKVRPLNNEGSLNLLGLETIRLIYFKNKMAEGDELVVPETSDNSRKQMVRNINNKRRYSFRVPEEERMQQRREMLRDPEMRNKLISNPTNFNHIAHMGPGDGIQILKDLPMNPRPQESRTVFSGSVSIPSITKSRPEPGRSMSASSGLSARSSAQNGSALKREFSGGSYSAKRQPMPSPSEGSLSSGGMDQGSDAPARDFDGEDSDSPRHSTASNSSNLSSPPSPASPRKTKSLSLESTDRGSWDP

O=c1sn(-c2cccc3ccccc23)c(=O)n1Cc1ccccc1 [TIDEGLUSIB]
inactive: [1] > 30 µM | [2] > 30 µM | [3] > 30 µM | [4] > 30 µM | [5] > 30 µM

CO[C@H]1C[C@@H]2CC[C@@H](C)[C@@](O)(O2)C(=O)C(=O)N2CCCC[C@H]2C(=O)O[C@H]([C@H](C)C[C@@H]2CC[C@@H](OCCO)[C@H](OC)C2)CC(=O)[C@H](C)/C=C(\C)[C@@H](O)[C@@H](OC)C(=O)[C@H](C)C[C@H](C)/C=C/C=C/C=C/1C [EVEROLIMUS]
inactive: [1] > 30 µM | [2] > 30 µM | [3] > 30 µM | [4] > 30 µM | [5] > 30 µM

CN(C)C(=O)c1cc2cnc(Nc3ccc(N4CCNCC4)cn3)nc2n1C1CCCC1 [RIBOCICLIB]
inactive: [1] > 30 µM | [2] > 30 µM | [3] > 30 µM | [4] > 30 µM | [5] > 30 µM

CC(C)Nc1cc(-c2c[nH]c(C(=O)N[C@H](CO)c3cccc(Cl)c3)c2)c(Cl)cn1 [ULIXERTINIB]
inactive: [1] > 30 µM | [2] > 30 µM | [3] > 30 µM | [4] > 30 µM | [5] > 30 µM
